Experimental data reported in patent publication US9902740B2, “Macrocyclic benzodiazepine dimers, conjugates thereof, preparation and uses” (BRISTOL-MYERS SQUIBB COMPANY, priority 2015, dated 2018).
Like-named read-outs stand apart in the source and are kept apart here.

Experiments:
Format in all cases: cell-based
[1] = tested on: H226 human lung cancer cell line; assay: Cytotoxic activity of dimers against H226 cells
From the text: (§1) H226 is a human lung cancer cell line. N87 is a human gastric cancer cell line. OVCAR3 is a human ovarian cancer cell line. HCT116 is a human colon cancer cell line. HCT116/VM46 is a human colon cancer cell line that is multi-drug and paclitaxel resistant.

[2] = tested on: OVCAR3 human ovarian cancer cell line; assay: Cytotoxic activity of dimers against OVCAR3 cells
From the text: as §1

[3] = tested on: N87 human gastric cancer cell line; assay: Cytotoxic activity of dimers against N87 cells; conditions: read-out: Cell Line (IC50, nM) N87
From the text: as §1

[4] = tested on: HCT116 human colon cancer cell line; assay: Cytotoxic activity of dimers against HCT116 cells
From the text: as §1

[5] = tested on: HCT116/VM46 human colon cancer cell line (multi-drug and paclitaxel resistant); assay: Cytotoxic activity of dimers against HCT116/VM46 cells
From the text: as §1

Row | Compound | IC50 ([1]; Table 4, H226 human lung cancer cell line, read-out: Cell Line (IC50, nM) H226) | IC50 ([2]; Table 4, OVCAR3 human ovarian cancer cell line, read-out: Cell Line (IC50, nM) OVCAR3) | IC50 ([3]; Table 4, N87 human gastric cancer cell line) | IC50 ([4]; Table 4) | IC50 ([5]; Table 4) | IC50 ([1]; Homo sapiens, NCI-H226, read-out: Cell Line (IC50, nM) H226) | IC50 ([2]; Homo sapiens, OVCAR-3, read-out: Cell Line (IC50, nM) OVCAR3) | IC50 ([3]; Homo sapiens) | IC50 ([4]; HCT-116, Table 4) | IC50 ([5]; Homo sapiens, HCT-116/VM46, Table 4)
1 | C=C1C[C@H]2C=Nc3cc4c(cc3C(=O)N2C1)OCCCCNCCCCOc1cc2c(cc1OCCCO4)N=C[C@@H]1CC(=C)CN1C2=O [IIa-14] | 21 nM | 50 nM | 23 nM | 38 nM | 170 nM |  |  |  |  | 
2 | CN1CCN(c2ccc(C3=CN4C(=O)c5cc6c(cc5NC[C@@H]4C3)OCCCOc3cc4c(cc3OCCCCCCCCO6)C(=O)N3C=C(c5ccc(N6CCN(C)CC6)cc5)C[C@H]3C=N4)cc2)CC1 [IId-3] |  |  |  |  |  | 0.035 nM | 0.26 nM | 0.072 nM | 0.045 nM | 0.033 nM
